Test results from patent publication US10287276B2, “Heteroaryl-1,2,4-triazole and heteroaryl-tetrazole compounds for controlling ectoparasites” (Elanco Tiergesundheit AG, priority 2016, dated 2019).

How the values were obtained:
[1] = system: Ctenocephalides Felis (Cat Flea); assay: Activity in vitro against Ctenocephalides felis (cat flea), Assay A; conditions: Ctenocephalides felis; at 100 ppm; adult fleas fed on treated blood for 24 h; dead fleas counted; read-out: efficacy (EC80)
Protocol: Activity In Vitro Against Ctenocephalides Felis (Cat Flea)—Assay A
A mixed adult population of fleas is placed in a suitably formatted 96-well plate allowing fleas to access and feed on treated blood via an artificial feeding system. Fleas are fed on treated blood for 24 h, after which the compound effect is recorded. Insecticidal activity is determined on the basis of the number of dead fleas recovered from the feeding system.

[2] = system: Lucilla Cuprina (Australian sheep blowfly); assay: Activity in vitro against Lucilla cuprina (Australian sheep blowfly), Assay A; conditions: Lucilia cuprina, 96 h; at 32 ppm; eggs on agar-based medium, 4 days at 28° C. and 60% relative humidity; read-out: efficacy (EC80)
Protocol: Activity in vitro against Lucilla Cuprina (Australian sheep blowfly)—Assay A
Freshly laid blowfly eggs are used to seed a suitably formatted microplate containing the test substances to be evaluated for antiparasitic activity. Each compound is tested by serial dilution in order to determine its minimum efficacy dose. The test compounds are embedded in an agar-based nutritive medium allowing the full development of the eggs into 3rd instar larvae. The incubation lasts for 4 days at 28° C. and 60% relative humidity. Egg-hatching and ensuing larval development are also recorded to identify a possible growth-regulating activity.

[3] = system: Rhipicephalus sanguineus (Dog Tick); assay: Activity in vitro against Rhipicephalus sanguineus (dog tick), Assay A, contact test; conditions: Rhipicephalus sanguineus, 168 h, at 100 ppm, adult ticks, 28° C. and 80% relative humidity for 7 days, read-out: efficacy (EC80)
Protocol: Activity In Vitro Against Rhipicephalus sanguineus (Dog Tick)—Assay A
A contact test is performed by pre-coating microplate with serial dilution of compound allowing evaluating anti-parasitic activity by contact against ticks. A mixed adult tick population is then distributed to each well of the plate and incubated at 28° C. and 80% relative humidity for 7 days, during which the effect of the test compound is monitored. Acaricidal activity is confirmed if and when adult ticks are dead.

[4] = system: Engorged Female Rhipicephalus microplus (Cattle Tick); assay: Activity in vitro against engorged female Rhipicephalus microplus (cattle tick), contact test; conditions: 672 h, organophosphorous-resistant Ultimo strain, evaluation 28 days later on mortality, oviposition and hatched larvae, read-out: efficacy (EC80)
Protocol: Activity In Vitro Against Engorged Female Rhipicephalus microplus (Cattle Tick)
A contact test is performed by pre-coating 6-well microplates with serial dilution of the compound to be evaluated for anti-parasitic activity. 10 engorged female ticks of the organophosphorous-resistant Ultimo strain are distributed to each well in triplicates. Plates are then incubated at 28° C. and 80% relative humidity. Evaluation takes place 28 days later based on mortality, oviposition and hatched larvae. […] Activity In Vivo Against Rhipicephalus sanguineus Nymphs on Mongolian Gerbils (Meriones unguiculatus) (Spray Application)

Lice (Polyplax serrata) = assay: Activity in vivo against lice (Polyplax serrata) in mice (topical); conditions: pour-on application, live lice on day +4 and +14, Henderson & Tilton formula, read-out: efficacy (EC90)
Protocol: Activity In Vivo Against Lice (Polyplax serrata) in Mice (Topical) Mice naturally infected with P. serrata are treated with the formulated test compound on day 0 by pour-on application. On day +4 and +14, efficacy is evaluated by counting the number of live lice under a binocular. Efficacy at the two time points is expressed as a comparison of lice numbers counted on the same mouse before treatment, using the Henderson & Tilton formula, taking also into account lice numbers found on mice treated with the empty formulation (placebo group): [formula] n=number of lice, T=treated group, Co=control/placebo group.

[5] = system: Ctenocephalides Felis (Cat Flea); assay: Activity in vitro against Ctenocephalides felis (cat flea), Assay B; conditions: Ctenocephalides felis; at 10 ppm in bovine blood; % mortality at 48 hours post infestation; read-out: efficacy (EC50)
Protocol: Activity In Vitro Against Ctenocephalides Felis (Cat Flea)—Assay B
Test compounds are added to organic bovine blood contained in an artificial feeding container. Compounds with known insecticidal activity are included to serve as positive controls. Newly emerged unfed adult fleas from a laboratory colony are aspirated into each vial. The test cages are maintained using the artificial feeding apparatus to allow ingestion of compound. Fleas are evaluated for % mortality at 48 hours post infestation. Fleas showing normal movement and/or jumping ability are considered viable and those showing no movement are scored as dead.

[6] = system: Rhipicephalus sanguineus Nymphs; assay: Activity in vivo against Rhipicephalus sanguineus nymphs on Mongolian gerbils; conditions: topical, 0 h, pour on application day 0, tick number reduction vs placebo, Abbott's formula, read-out: efficacy (EC90)
Protocol: On day 0, gerbils are treated with the test compound at a given dose by pour on application. On day +1 (+2), the animals are infested with nymphs of R. sanguineus. Ticks are left on the animals until full repletion. Seven days after infestation nymphs dropped off fully engorged are collected and counted. They are kept until molting to also evaluate growth regulating activity of the test compound. Efficacy in killing (and growth regulating) is expressed as a tick number (and molted tick number) reduction in comparison with a placebo treated group, using the Abbott's formula:
n=number of live ticks. T=treated group. Co=control/placebo group.

| SMILES | pest or weed control at 100 ppm [1] | pest or weed control at 32 ppm [2] | pest or weed control at 100 ppm [3] | pest or weed control at 200 ppm [4] | inhibition in vivo at 32 mg/kg (Lice (Polyplax serrata)) | pest or weed control at 10 ppm [5] | inhibition in vivo at 32 mg/kg [6] |
| --- | --- | --- | --- | --- | --- | --- | --- |
| CC(c1ncnn1-c1ncccn1)N(CCCF)C(=O)c1cc(Cl)cc(C(F)(F)F)c1 (stereo not shown) [Example 24, 3-Chloro-N-(3-fluoropropyl)-N-[1-(2-pyrimidin-2-yl-1,2,4-triazol-3-yl)ethyl]-5-(trifluoromethyl)benzamide] | > 80% | > 80% | > 80% | > 80% | > 90% |  |  |
| CC(c1ncnn1-c1ncccn1)N(C)C(=O)c1cccc(C(N)=S)c1 (stereo not shown) [Example 71, 3-Carbamothioyl-N-methyl-N-[1-(2-pyrimidin-2-yl-1,2,4-triazol-3-yl)ethyl]benzamide] |  |  |  |  |  | > 50% |  |
| CC(NC(=O)c1cccc(C#N)c1)c1ncnn1-c1ncccn1 (stereo not shown) [Example 52, 3-Cyano-N-[1-(2-pyrimidin-2-yl-1,2,4-triazol-3-yl)ethyl]benzamide] |  |  |  |  |  | > 50% |  |
| CC(c1ncnn1-c1ccccn1)N(CC1CC1(Cl)Cl)C(=O)c1cc(C(F)(F)F)cc(C(F)(F)F)c1 (stereo not shown) [Example 17, N-[(2,2-Dichlorocyclopropyl)methyl]-N-[1-[2-(2-pyridyl)-1,2,4-triazol-3-yl]ethyl]-3,5-bis(trifluoromethyl)benzamide] | > 80% | > 80% |  | > 80% | > 90% |  |  |
| CC(c1ncnn1-c1ncccn1)N(CCCF)C(=O)c1cc(C(F)(F)F)cc(C(F)(F)F)c1 (stereo not shown) [Example 21, N-(3-Fluoropropyl)-N-[1-(2-pyrimidin-2-yl-1,2,4-triazol-3-yl)ethyl]-3,5-bis(trifluoromethyl)benzamide] | > 80% | > 80% |  | > 80% | > 90% |  |  |
| CC(c1ncnn1-c1ncccn1)N(CCC(F)(F)F)C(=O)c1cc(Cl)cc(OC(F)(F)F)c1 (stereo not shown) [Example 27, 3-Chloro-N-[1-(2-pyrimidin-2-yl-1,2,4-triazol-3-yl)ethyl]-5-(trifluoromethoxy)-N-(3,3,3-trifluoropropyl)benzamide] | > 80% | > 80% | > 80% |  | > 90% |  |  |
| CC(c1ncnn1-c1ncccn1)N(CCC(F)(F)F)C(=O)c1cc(Cl)cc(C(F)(F)F)c1 (stereo not shown) [Example 26, 3-Chloro-N-[1-(2-pyrimidin-2-yl-1,2,4-triazol-3-yl)ethyl]-5-(trifluoromethyl)-N-(3,3,3-trifluoropropyl)benzamide] | > 80% | > 80% | > 80% |  |  |  | > 90% |
| CC(c1ncnn1-c1ncccn1)N(CCCF)C(=O)c1cncc(C(F)(F)F)c1 (stereo not shown) [Example 31, N-(3-Fluoropropyl)-N-[1-(2-pyrimidin-2-yl-1,2,4-triazol-3-yl)ethyl]-5-(trifluoromethyl)pyridine-3-carboxamide] | > 80% | > 80% | > 80% |  |  |  | > 90% |
| C#CCN(C(=O)c1cc(Cl)cc(C(F)(F)F)c1)C(C)c1ncnn1-c1ccccn1 (stereo not shown) [Example 7, 3-Chloro-N-prop-2-ynyl-N-[1-[2-(2-pyridyl)-1,2,4-triazol-3-yl]ethyl]-5-(trifluoromethyl)benzamide] | > 80% | > 80% |  | > 80% | > 90% |  |  |
| CC(c1ncnn1-c1ccccn1)N(CC1CC1)C(=O)c1cc(Cl)cc(Cl)c1 (stereo not shown) [Example 2, 3,5-Dichloro-N-(cyclopropylmethyl)-N-[1-[2-(2-pyridyl)-1,2,4-triazol-3-yl]ethyl]benzamide] | > 80% | > 80% | > 80% | > 80% |  |  |  |
| CC(c1ncnn1-c1ncccn1)N(CCF)C(=O)c1cncc(C(F)(F)F)c1 (stereo not shown) [Example 30, N-(2-Fluoroethyl)-N-[1-(2-pyrimidin-2-yl-1,2,4-triazol-3-yl)ethyl]-5-(trifluoromethyl)pyridine-3-carboxamide] | > 80% | > 80% | > 80% |  | > 90% |  |  |
| C#CCN(C(=O)c1cc(Cl)cc(OC(F)(F)F)c1)C(C)c1ncnn1-c1ncccn1 (stereo not shown) [Example 36, 3-Chloro-N-prop-2-ynyl-N-[1-(2-pyrimidin-2-yl-1,2,4-triazol-3-yl)ethyl]-5-(trifluoromethoxy)-benzamide] | > 80% | > 80% | > 80% | > 80% | > 90% |  |  |
| CC(c1ncnn1-c1ncccn1)N(CCCF)C(=O)c1cc(Cl)cc(OC(F)(F)F)c1 (stereo not shown) [Example 25, 3-Chloro-N-(3-fluoropropyl)-N-[1-(2-pyrimidin-2-yl-1,2,4-triazol-3-yl)ethyl]-5-(trifluoromethoxy)benzamide] | > 80% | > 80% |  | > 80% | > 90% |  |  |
| CC(c1ncnn1-c1ncccn1)N(CCC(F)(F)F)C(=O)c1cncc(C(F)(F)F)c1 (stereo not shown) [Example 29, N-[1-(2-Pyrimidin-2-yl-1,2,4-triazol-3-yl)ethyl]-5-(trifluoromethyl)-N-(3,3,3-trifluoropropyl)pyridine-3-carboxamide] | > 80% | > 80% | > 80% |  |  |  | > 90% |
| C#CCN(C(=O)c1cc(C(F)(F)F)cc(C(F)(F)F)c1)C(C)c1ncnn1-c1ccccn1 (stereo not shown) [Example 15] | > 80% | > 80% | > 80% | > 80% | > 90% |  |  |
| CC(c1ncnn1-c1ccccn1)N(CC1CC1)C(=O)c1cc(Cl)cc(C(F)(F)F)c1 (stereo not shown) [Example 6, 3-Chloro-N-(cyclopropylmethyl)-N-[1-[2-(2-pyridyl)-1,2,4-triazol-3-yl]ethyl]-5-(trifluoromethyl)benzamide] | > 80% | > 80% | > 80% | > 80% |  |  |  |
| CC(c1ncnn1-c1ncccn1)N(CC1CC1)C(=O)c1cccc(C#N)c1 (stereo not shown) [Example 38, 3-Cyano-N-(cyclopropylmethyl)-N-[1-(2-pyrimidin-2-yl-1,2,4-triazol-3-yl)ethyl]benzamide] | > 80% | > 80% | > 80% | > 80% | > 90% |  |  |
| CCCN(C(=O)c1cc(Cl)cc(Cl)c1)C(C)c1ncnn1-c1ccccn1 (stereo not shown) [Example 3] | > 80% | > 80% | > 80% | > 80% |  |  |  |
